US5436254A, “Carbostyril derivatives” (Otsuka Pharmaceutical Company, Ltd., priority 1989, dated 1995)

Molecular target: V1 receptor (Rattus norvegicus, UniProt P30560)
Test: biochemical
Format: binding

Chain of V1 receptor (P30560 whole entry): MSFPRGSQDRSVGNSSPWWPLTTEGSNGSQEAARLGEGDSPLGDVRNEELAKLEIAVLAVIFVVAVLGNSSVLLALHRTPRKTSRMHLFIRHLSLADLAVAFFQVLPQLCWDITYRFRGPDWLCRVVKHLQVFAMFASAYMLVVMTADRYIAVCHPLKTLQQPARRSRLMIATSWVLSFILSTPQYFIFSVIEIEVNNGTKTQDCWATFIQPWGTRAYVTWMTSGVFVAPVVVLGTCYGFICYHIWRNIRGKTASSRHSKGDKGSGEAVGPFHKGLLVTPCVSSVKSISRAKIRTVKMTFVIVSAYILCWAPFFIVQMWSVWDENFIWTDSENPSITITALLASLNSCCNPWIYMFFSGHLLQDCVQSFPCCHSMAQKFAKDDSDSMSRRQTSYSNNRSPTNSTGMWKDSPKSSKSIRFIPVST

| Compound | IC50 [nM] |
| --- | --- |
| COC1(CNCCCCCCOc2ccc(C(=O)N3CCC(N4C(=O)CCc5ccccc54)CC3)cc2)OCC(O)C(O)C1O (centres unmarked) [Example 267, 1-{1-(4-[6-(N-(2-Methoxy-3,4,5-trihydroxytetrahydropyran-2-yl)methylamino)hexyloxy]benzoyl)-4-piperidinyl}-3,4-dihydrocarbostyril] | 82 |
| CCN(CC)CCCCCCCOc1ccc(C(=O)N2CCC(N3C(=O)CCc4ccccc43)CC2)cc1 [Example 268, 1-{1-(4-[7-(Diethylamino)heptyloxy]benzoyl)-4-piperidinyl}-3,4-dihydrocarbostyril] | 27 |
| O=C(CCCCCOc1ccc(C(=O)N2CCC(N3C(=O)CCc4ccccc43)CC2)cc1)N1CCN(Cc2ccccc2)CC1 [Example 269, 1-{1-(4-[5-(4-Benzyl-1-piperazinylcarbonyl)pentyloxy]benzoyl)-4-piperidinyl}-3,4-dihydrocarbostyril] | 160 |
| O=C(CCCCCOc1ccc(C(=O)N2CCC(N3C(=O)CCc4ccccc43)CC2)cc1)N1CCNCC1 [Example 270, 1-{1-(4-[5-(1-Piperazinylcarbonyl)pentyloxy]benzoyl)-4-piperidinyl}-3,4-dihydrocarbostyril] | 44 |
| CC(=O)N1CCN(C(=O)CCCCCOc2ccc(C(=O)N3CCC(N4C(=O)CCc5ccccc54)CC3)cc2)CC1 [Example 271, 1-{1-(4-[5-(4-Acetyl-1-piperazinylcarbonyl)pentyloxy]benzoyl)-4-piperidinyl}-3,4-dihydrocarbostyril] | 42 |
| CN1CCN(C(=O)CCCCCOc2ccc(C(=O)N3CCC(N4C(=O)CCc5ccccc54)CC3)cc2)CC1 [Example 272, 1-{1-(4-[5-(4-Methyl-1-piperazinylcarbonyl)pentyloxy]benzoyl)-4-piperidinyl}-3,4-dihydrocarbostyril] | 38 |
| C=CCN1CCN(C(=O)CCCCCOc2ccc(C(=O)N3CCC(N4C(=O)CCc5ccccc54)CC3)cc2)CC1 [Example 273, 1-{1-(4-[5-(4-Allyl-1-piperazinylcarbonyl)pentyloxy]benzoyl)-4-piperidinyl}-3,4-dihydrocarbostyril] | 57 |
| O=C(O)C1CCN(C(=O)CCCCCOc2ccc(C(=O)N3CCC(N4C(=O)CCc5ccccc54)CC3)cc2)CC1 [Example 274, 1-{1-(4-[5-(4-Carboxy-1-piperidinylcabonyl)pentyloxy]benzoyl)-4-piperidinyl}-3,4-dihydrocarbostyril] | 490 |
| NC(=O)C1CCN(C(=O)CCCCCOc2ccc(C(=O)N3CCC(N4C(=O)CCc5ccccc54)CC3)cc2)CC1 [Example 275, 1-{1-(4-[5-(4-Carbamoyl-1-piperidinylcarbonyl)pentyloxy]benzoyl)-4-piperidinyl}-3,4-dihydrocarbostyril] | 46 |
| CN(C)C(=O)C1CCN(C(=O)CCCCCOc2ccc(C(=O)N3CCC(N4C(=O)CCc5ccccc54)CC3)cc2)CC1 [Example 276, 1-{1-(4-[5-(4-Dimethylaminocarbonyl-1-piperidinylcarbonyl)pentyloxy]benzoyl)-4-piperidinyl}-3,4-dihydrocarbostyril] | 110 |
| Cn1ccnc1SCCCCCOc1ccc(C(=O)N2CCC(N3C(=O)CCc4ccccc43)CC2)cc1 [Example 278, 1-{1-(4-[5-(1-Methyl-2-imidazolylthio)pentyloxy]benzoyl)-4-piperidinyl}-3,4-dihydrocarbostyril] | 110 |
| O=C(c1ccc(OCCCCCSc2ncccn2)cc1)N1CCC(N2C(=O)CCc3ccccc32)CC1 [Example 279, 1-{1-(4-[5-(2-Pyrimidylthio)pentyloxy]benzoyl)-4-piperidinyl}-3,4-dihydrocarbostyril] | 180 |
| O=C(c1ccc(OCCCCC[S+]([O-])c2ncccn2)cc1)N1CCC(N2C(=O)CCc3ccccc32)CC1 (centres unmarked) [Example 280, 1-{1-(4-[5-(2-Pyrimidylsufinyl)pentyloxy]benzoyl)-4-piperidinyl}-3,4-dihydrocarbostyril] | 87 |
| O=C(c1ccc(OCCCCCS(=O)(=O)c2ncccn2)cc1)N1CCC(N2C(=O)CCc3ccccc32)CC1 [Example 281, 1-(1-(4-[5-(2-Pyrimidylsulfonyl)pentyloxy]benzoyl)-4-piperidinyl}-3,4-dihydrocarbostyril] | 54 |
| Cn1ccnc1S(=O)(=O)CCCCCOc1ccc(C(=O)N2CCC(N3C(=O)CCc4ccccc43)CC2)cc1 [Example 282, 1-{1-(4-[5-(1-Methyl-2-imidazolylsulfonyl)pentyloxy)benzoyl)-4-piperidinyl}-3,4-dihydrocarbostyril] | 75 |
| O=C(c1ccc(OCCCCCSc2ccncc2)cc1)N1CCC(N2C(=O)CCc3ccccc32)CC1 [Example 283, 1-{1-(4-[5-(4-Pyridylthio)pentyloxy]benzoyl)-4-piperidinyl}-3,4-dihydrocarbostyril] | 610 |
| Nc1ccc(SCCCCCOc2ccc(C(=O)N3CCC(N4C(=O)CCc5ccccc54)CC3)cc2)cc1 [Example 284, 1-{1-(4-[5-(4-Aminophenylthio)pentyloxy]benzoyl)-4-piperidinyl}-3,4-dihydrocarbostyril] | 400 |
| O=C(c1ccc(OCCCCCS(=O)(=O)c2ccc([N+](=O)[O-])cc2)cc1)N1CCC(N2C(=O)CCc3ccccc32)CC1 [Example 285, 1-{1-(4-[5-(4-Nitrophenylsulfonyl)pentyloxy]benzoyl)-4-piperidinyl}-3,4-dihydrocarbostyril] | 230 |
| Nc1ccc(S(=O)(=O)CCCCCOc2ccc(C(=O)N3CCC(N4C(=O)CCc5ccccc54)CC3)cc2)cc1 [Example 286, 1-{1-(4-[5-(4-Aminophenylsulfonyl)pentyloxy]benzoyl)-4-piperidinyl}-3,4-dihydrocarbostyril] | 150 |
| O=C(c1ccc(OCCCCCS(=O)(=O)c2ccccn2)cc1)N1CCC(N2C(=O)CCc3ccccc32)CC1 [Example 287, 1-{1-(4-[5-(2-Pyridylsulfonyl)pentyloxy]benzoyl)-4-piperidinyl}-3,4-dihydrocarbostyril] | 100 |
| O=C(c1ccc(OCCCCCS(=O)(=O)c2cc[n+]([O-])cc2)cc1)N1CCC(N2C(=O)CCc3ccccc32)CC1 [Example 288, 1-{1-(4-[5-(Pyridine-N-oxide-4-ylsulfonyl)pentyloxy]benzoyl)-4-piperidinyl}-3,4-dihydrocarbostyril] | 48 |
| CC(=O)Nc1ccc(S(=O)(=O)CCCCCOc2ccc(C(=O)N3CCC(N4C(=O)CCc5ccccc54)CC3)cc2)cc1 [Example 289, 1-{1-(4-[5-(4-Acetylaminophenylsulfonyl)pentyloxy]benzoyl)-4-piperidinyl}-3,4-dihydrocarbostyril] | 100 |
| O=C(c1ccc(OCCCCCN2CCCC2)cc1OCCCCCN1CCCC1)N1CCC(N2C(=O)CCc3ccccc32)CC1 [Example 291] | 98 |
| CCN(CC)CCCCCOc1ccc(C(=O)N2CCC(N3C(=O)CCc4ccccc43)CC2)c(OCCCCCN(CC)CC)c1 [Example 292, 1-{1-[2,4-Di(5-diethylaminopentyloxy]benzoyl)-4-piperidinyl}-3,4-dihydrocarbostyril] | 77 |
| COc1cc(OCCCCC(=O)N2CCSCC2)ccc1C(=O)N1CCC(N2C(=O)CCc3ccccc32)CC1 [Example 293, 1-{1-[2-Methoxy-4-(4-thiomorpholinocarbonylbutyloxy)benzoyl]-4-piperidinyl}-3,4-dihydrocarbostyril] | 220 |
| COc1cc(OCCCCC(N)=O)ccc1C(=O)N1CCC(N2C(=O)CCc3ccccc32)CC1 [Example 294, 1-{1-[2-Methoxy-4-(4-carbamoylbutoxy)benzoyl]-4-piperidinyl}-3,4-dihydrocarbostyril] | 170 |
